Measurements as given in US6989435B2, “Compounds and methods to inhibit or augment an inflammatory response” (Cambridge University Technical Services Ltd., priority 1997, dated 2006).

Legend:
[1] = system: cultured smooth muscle cells; assay: Co-mitogenic effect of MCP-1 with 0.5% fetal calf serum; type: cell-based; details: 100 μM peptide
Procedure: Many chemokines are co-mitogenic with low concentrations of FCS, e.g., 50 ng/ml MCP-1+0.5% FCS is a mitogen for smooth muscle cells. Assays well known to the art for determination of DNA synthesis induced by any known chemokine plus a low concentration (<5%) of FCS on suitable cells (e.g., smooth muscle cells) in the presence and absence of the agent may be employed to screen agents for such inhibitory activity. See Porreca et al., J. Vasc. Res., 34, 58 (1997), the disclosure of which is incorporated by reference herein.
Peptide 3(1-12)[MCP-1] […] MCP-1 has been reported to be a weak co-mitogen with 0.5% fetal calf serum for cultured smooth muscle cells. […] (SEQ ID NO:1) is an MCP-1 receptor antagonist. The observation that peptide 3(1-12) [MCP-1]

[2] = system: chemokine-induced THP-1 migration (MCP-1, MIP1α, IL8, SDF1α); assay: Trans-well THP-1 migration assay, across the chemokines tested; type: cell-based, human
Procedure: To determine whether an agent inhibits a chemokine-induced activity, such as macrophage recruitment, varying amounts of the agent are mixed with cells in the presence of a known chemoattractant. […] Chemokine (such as MCP-1, MIP1α, IL8 or SDF-1α), at a concentration known to cause significant migration of THP-1 cells in the trans-well migration assay, is placed in the lower compartment (FIG. 1). […] After incubation, the cells are gently removed from the top of the filter with a pipette, 20 μl of 20 mM EDTA in simple PBS is added into each top well, and incubated for 20 minutes at 4° C. The filter is carefully flushed with media using a gentle flow, and removed. […] The media is carefully aspirated from each well, and the converted dye is solubilized by 20 μl of DMSO. Absorbance of converted dye is measured at a wavelength of 595 nm using an ELISA plate reader. The number of migrated cells in each well is then determined by interpolation of the standard curve (see also Imai et al., J. Biol. Chem., 272, 15036 (1997)). […] The framed filter was aligned with the holes in the corner of the filter frame and placed over the wells. Five×10^4 THP-1 cells in 25 μl of RPMI-1640 culture media were added to the upper compartment. Peptides were dissolved in Milli Q water and then serially diluted in culture medium. In most cases, the serially diluted peptides were added to the upper compartment of the chemotaxis chamber. […] After incubation, the cells were gently removed from the top of the filter with a pipette, 20 μl of 20 mM EDTA in PBS was added into each top well, and the mixture was incubated for 20 minutes at 4° C. The filter was then carefully flushed with media using a gentle flow, and removed. […] The media was carefully aspirated from each well, and the converted dye was solubilized by 20 μl of DMSO. Absorbance of converted dye was measured at a wavelength of 595 nm using an ELISA plate reader. […] Representative chemokines included a beta-chemokine (“CC”), MIP-1α, and two alpha-chemokines (“CXC”), IL-8 and SDF-1α. […]

[3] = target: T1, Duffy Antigen Receptor for Chemokines (DARC) (Homo sapiens, UniProt Q16570); assay: DARC binding: competition with 125I-labeled MCP-1 on red blood cells
T1 sequence (Q16570 1-336): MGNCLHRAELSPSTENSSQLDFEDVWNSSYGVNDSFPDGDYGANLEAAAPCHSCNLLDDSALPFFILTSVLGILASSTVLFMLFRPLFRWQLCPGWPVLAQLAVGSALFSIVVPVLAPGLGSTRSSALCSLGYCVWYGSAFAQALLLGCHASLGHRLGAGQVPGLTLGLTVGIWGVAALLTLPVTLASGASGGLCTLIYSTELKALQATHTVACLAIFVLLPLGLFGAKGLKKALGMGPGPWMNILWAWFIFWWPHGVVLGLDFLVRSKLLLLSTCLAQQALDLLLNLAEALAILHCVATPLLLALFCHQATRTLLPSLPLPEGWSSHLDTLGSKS

[4] = system: T-tropic HIV isolate; assay: HIV infection of Jurkat cells, reverse transcriptase assay of culture medium; type: cell-based; details: 100 μM peptide; 3 weeks in culture
Procedure: Peptides were added on day 0, one hour prior to infection of the cells with HIV isolate. The full length chemokine SDF-1α was used as a positive control.
(SEQ ID NO:1), or (iv) 100 ng/ml SDF-1, which should bind to and block all CXCR-4 receptors. After 3 weeks in culture, viral replication was assessed by a reverse transcriptase assay of the culture medium. Peptide 3(1-12)[MCP-1]
Since peptide 2(1-15)[MCP1] […] (SEQ ID NO:3) binds and inhibits an epitope used by HIV for cell entry but not by MCP-1 for signaling. To test this hypothesis, the same HIV infection assay described above was employed to test whether peptide 2(1-15)[MCP-1] (SEQ ID NO:3) inhibits HIV infection of Jurkat cells. At 100 μM, peptide 2(1-15)[MCP-1]

EICADPKQKWVQ [Peptide 3]
effect on the co-mitogenic effect of MCP-1 for cultured smooth muscle cells [1]: completely abolished | inhibition of migration induced by any of the chemokines of either family ([2]; 100 μM, THP-1): > 99% | CC SPECIFICITY ([2]; Table 7, average inhibitory ED50 versus SDF1 and IL8 divided by average inhibitory ED50 versus MCP-1 and MIP1α): 1.5 | DARC binding, in words [3]: low μM concentration range | DUFFY SELECTIVITY ([3]; Table 7, estimated ka for binding to red blood cells divided by average inhibitory ED50 versus each of the chemokines): 1.00 | inhibition of Jurkat cell infection by HIV [4]: effective inhibitor
